According to ChEMBL document CHEMBL4229359, “Simple 2(5H)-furanone derivatives with selective cytotoxicity towards non-small cell lung cancer cell line A549 - Synthesis, structure-activity relationship and biological evaluation” (Eur J Med Chem, 2018):
Active and inactive are the calls of the source. The rule behind the calls is not given here.

Tests used:
[1] = test system: BEAS-2B; assay: Cytotoxicity against human BEAS2B cells assessed as reduction in cell viability after 72 hrs by MTT assay; type: cell-based
[2] = test system: A549; assay: Cytotoxicity against human A549 cells assessed as reduction in cell viability after 72 hrs by MTT assay; type: functional, cell-based; conditions: A549, 72 h
[3] = Selectivity index, ratio of IC50 for human BEAS2B cells to IC50 for human A549 cells; type: toxicity
[4] = test system: SJSA-1; assay: Cytotoxicity against human SJSA1 cells assessed as reduction in cell viability after 72 hrs by MTT assay; type: functional, cell-based; conditions: SJSA-1, 72 h
[5] = test system: A549; assay: Effect on Bcl2 protein expression in human A549 cells at 20 uM after 72 hrs by densitometric analysis; type: functional, cell-based
[6] = test system: A549; assay: Induction of apoptosis in human A549 cells assessed as live cells at 20 uM after 72 hrs by Annexin V-FITC/propidium iodide staining based flow cytometry (reference value: 98.5%); type: functional
[7] = test system: A549; assay: Cell cycle arrest in human A549 cells assessed as accumulation at G2/M-phase at 10 uM after 72 hrs by propidium iodide staining based flow cytometry (reference value: 6.3 to 7.2%); type: functional
[8] = test system: A549; assay: Induction of apoptosis in human A549 cells assessed as necrotic cells at 20 uM after 72 hrs by Annexin V-FITC/propidium iodide staining based flow cytometry (reference value: 0.6%); type: functional
[9] = test system: A549; assay: Cell cycle arrest in human A549 cells assessed as accumulation at G1-phase at 20 uM after 72 hrs by propidium iodide staining based flow cytometry (reference value: 61.5%); type: functional
[10] = test system: A549; assay: Upregulation of Cyclin-B1 protein expression in human A549 cells at 10 uM after 72 hrs by Western blot analysis; type: functional, cell-based
[11] = test system: PC-3; assay: Cytotoxicity against human PC3 cells assessed as reduction in cell viability after 72 hrs by MTT assay; type: functional, cell-based; conditions: PC-3, 72 h
[12] = test system: A549; assay: Induction of apoptosis in human A549 cells assessed as caspase-3 cleavage at 20 uM after 72 hrs by Western blot analysis; type: functional, cell-based
[13] = test system: HCT-116; assay: Cytotoxicity against human HCT116 cells assessed as reduction in cell viability after 72 hrs by MTT assay; type: functional, cell-based; conditions: HCT-116, 72 h
[14] = test system: A549; assay: Cell cycle arrest in human A549 cells assessed as accumulation at S-phase at 10 uM after 72 hrs by propidium iodide staining based flow cytometry (reference value: 16.8 to 18.5%); type: functional
[15] = test system: DU-145; assay: Cytotoxicity against human DU145 cells assessed as reduction in cell viability after 72 hrs by MTT assay; type: functional, cell-based; conditions: DU-145, 72 h
[16] = test system: A549; assay: Anticlonogenic activity against human A549 cells at 10 uM after 24 to 72 hrs by crystal violet staining based microscopic method; type: functional, cell-based
[17] = test system: A549; assay: Effect on Bax protein expression in human A549 cells at 20 uM after 72 hrs by densitometric analysis; type: functional, cell-based
[18] = test system: A549; assay: Cell cycle arrest in human A549 cells assessed as accumulation at G2/M-phase at 10 uM after 24 hrs by propidium iodide staining based flow cytometry (reference value: 6.5%); type: functional
[19] = test system: HepG2; assay: Cytotoxicity against human HepG2 cells assessed as reduction in cell viability after 72 hrs by MTT assay; type: functional, cell-based; conditions: HepG2, 72 h
[20] = test system: A549; assay: Induction of apoptosis in human A549 cells assessed as late apoptotic cells at 20 uM after 72 hrs by Annexin V-FITC/propidium iodide staining based flow cytometry (reference value: 0.5%); type: functional
[21] = test system: LoVo; assay: Cytotoxicity against human LoVo cells assessed as reduction in cell viability after 72 hrs by MTT assay; type: functional, cell-based
[22] = test system: A549; assay: Cell cycle arrest in human A549 cells assessed as accumulation at G1-phase at 10 uM after 72 hrs by propidium iodide staining based flow cytometry (reference value: 75.2 to 76%); type: functional
[23] = test system: A549; assay: Cell cycle arrest in human A549 cells assessed as accumulation at S-phase at 20 uM after 72 hrs by propidium iodide staining based flow cytometry (reference value: 31.9%); type: functional
[24] = test system: A549; assay: Induction of apoptosis in human A549 cells assessed as early apoptotic cells at 20 uM after 72 hrs by Annexin V-FITC/propidium iodide staining based flow cytometry (reference value: 0.4%); type: functional
[25] = test system: A549; assay: Effect on Pro-caspase-3 protein expression in human A549 cells at 20 uM after 72 hrs by densitometric analysis; type: functional, cell-based
[26] = test system: A549; assay: Effect on Bad protein expression in human A549 cells at 20 uM after 72 hrs by densitometric analysis; type: functional, cell-based
[27] = test system: A549; assay: Effect on Bcl-x protein expression in human A549 cells at 20 uM after 72 hrs by densitometric analysis; type: functional, cell-based
[28] = test system: A549; assay: Cell cycle arrest in human A549 cells assessed as accumulation at G1-phase at 10 uM after 24 hrs by propidium iodide staining based flow cytometry (reference value: 59.4%); type: functional
[29] = test system: A549; assay: Cell cycle arrest in human A549 cells assessed as accumulation at G2/M-phase at 20 uM after 72 hrs by propidium iodide staining based flow cytometry (reference value: 6.7%); type: functional
[30] = test system: MCF7; assay: Cytotoxicity against human MCF7 cells assessed as reduction in cell viability after 72 hrs by MTT assay; type: functional, cell-based; conditions: MCF7, 72 h
[31] = test system: A549; assay: Effect on cleaved caspase-3 protein expression in human A549 cells at 20 uM after 72 hrs by densitometric analysis; type: functional, cell-based
[32] = test system: A549; assay: Cell cycle arrest in human A549 cells assessed as accumulation at S-phase at 10 uM after 24 hrs by propidium iodide staining based flow cytometry (reference value: 34.1%); type: functional
[33] = test system: U2OS; assay: Cytotoxicity against human U2OS cells assessed as reduction in cell viability after 72 hrs by MTT assay; type: functional, cell-based
[34] = test system: HT-29; assay: Cytotoxicity against human HT-29 cells assessed as reduction in cell viability after 72 hrs by MTT assay; type: functional, cell-based; conditions: HT-29, 72 h
[35] = test system: Hep 3B2; assay: Cytotoxicity against human Hep3B cells assessed as reduction in cell viability after 72 hrs by MTT assay; type: functional, cell-based
[36] = test system: HCT-116; assay: Cytotoxicity against p53-/- human HCT116 cells assessed as reduction in cell viability after 72 hrs by MTT assay; type: functional, cell-based; conditions: HCT-116, 72 h
[37] = test system: A549; assay: Anticlonogenic activity against human A549 cells at 10 uM after 72 hrs by crystal violet staining based microscopic method relative to control; type: functional

CC(C)(C)COC1OC(=O)C(Cl)=C1N1CCCCC1 (configuration not stated)
IC50 [1]: > 400 µM
IC50 [2]: > 400 µM

CC(C)(C)COC1OC(=O)C(Cl)=C1Nc1ccccc1 (configuration not stated)
log(RatioIC50) [3]: 0
IC50 [1]: 76.2 µM
IC50 [2]: 76.2 µM

CCCCOC1OC(=O)C(Cl)=C1Nc1ccccc1 (configuration not stated)
log(RatioIC50) [3]: 0.07
IC50 [1]: 206 µM
IC50 [2]: 175 µM

CC(C)(C)COC1OC(=O)C(Cl)=C1Cl (configuration not stated)
IC50 [4]: 11.1 µM
Activity [5]: inactive
Activity [6]: 77.7%
Activity [7]: 8.4%
Activity [8]: 2.3%
Activity [9]: 51.2%
Activity [10]: inactive
IC50 [11]: 6 µM
log(RatioIC50) [3]: 0.88
Activity [12]: inactive
IC50 [13]: 7.2 µM
Activity [14]: 17.6%
IC50 [15]: 26.8 µM
Activity [16]: Active
Activity [17]: inactive
Activity [18]: 5.3%
IC50 [19]: 17.6 µM
Activity [20]: 16.1%
IC50 [21]: 7.3 µM
Activity [22]: 74%
Activity [23]: 40.8%
Activity [24]: 4.2%
Activity [25]: inactive
Activity [26]: inactive
Activity [27]: inactive
Activity [28]: 62.1%
Activity [29]: 8%
IC50 [30]: 11.2 µM
Activity [31]: inactive
Activity [32]: 32.6%
IC50 [1]: 59 µM
IC50 [33]: 38.1 µM
IC50 [34]: 7.2 µM
IC50 [35]: 27.8 µM
IC50 [2]: 7.7 µM
IC50 [36]: 6.2 µM

CCCCOC1OC(=O)C(Cl)=C1Nc1ccc(Cl)cc1 (configuration not stated)
log(RatioIC50) [3]: 0.02
IC50 [1]: 60.8 µM
IC50 [2]: 58.1 µM

CCCCOC1OC(=O)C(Cl)=C1N1CCCCC1 (configuration not stated)
log(RatioIC50) [3]: 0.27
IC50 [1]: 172 µM
IC50 [2]: 93.3 µM

CC(C)(C)OC1OC(=O)C(Cl)=C1Cl (configuration not stated)
log(RatioIC50) [3]: 0.22
IC50 [1]: 23.1 µM
IC50 [2]: 14 µM

CC(C)OC1OC(=O)C(Cl)=C1Nc1ccc(Br)cc1 (configuration not stated)
log(RatioIC50) [3]: 0.32
IC50 [1]: 202 µM
IC50 [2]: 95.9 µM

CCCOC1OC(=O)C(Cl)=C1Cl (configuration not stated)
log(RatioIC50) [3]: -0.02
IC50 [1]: 3.5 µM
IC50 [2]: 3.6 µM

C#Cc1cccc(Nc2ncnc3cc(OCCOC)c(OCCOC)cc23)c1 [ERLOTINIB]
Activity [7]: 6%
Activity [14]: 18.5%
Activity [22]: 74.5%
Activity [37]: 75%

CC(C)OC1OC(=O)C(Cl)=C1Nc1ccc(Cl)cc1 (configuration not stated)
log(RatioIC50) [3]: 0.29
IC50 [1]: 77 µM
IC50 [2]: 39.6 µM

CCCCOC1OC(=O)C(Cl)=C1Nc1ccc(Br)cc1 (configuration not stated)
log(RatioIC50) [3]: -0.04
IC50 [1]: 42.7 µM
IC50 [2]: 46.5 µM

CC(C)OC1OC(=O)C(Cl)=C1Nc1ccccc1 (configuration not stated)
IC50 [1]: > 400 µM
IC50 [2]: > 400 µM

CCOC1OC(=O)C(Cl)=C1Cl (configuration not stated)
log(RatioIC50) [3]: 0.22
IC50 [1]: 3.8 µM
IC50 [2]: 6.3 µM

O=C1OC(O)C(Cl)=C1Cl (configuration not stated) [MUCOCHLORIC ACID]
IC50 [4]: 39.4 µM
Activity [5]: inactive
Activity [6]: 98.6%
Activity [7]: 7.2%
Activity [8]: 0.8%
Activity [9]: 64.2%
Activity [10]: inactive
IC50 [11]: 24.7 µM
log(RatioIC50) [3]: -0.44
Activity [12]: inactive
IC50 [13]: 8.3 µM
Activity [14]: 18.8%
IC50 [15]: 130 µM
Activity [16]: inactive
Activity [17]: inactive
Activity [18]: 8%
IC50 [19]: 111 µM
Activity [20]: 0.3%
IC50 [21]: 17.2 µM
Activity [22]: 74%
Activity [23]: 29%
Activity [24]: 0.3%
Activity [25]: inactive
Activity [26]: inactive
Activity [27]: inactive
Activity [28]: 58.7%
Activity [29]: 6.9%
IC50 [30]: 32.3 µM
Activity [31]: inactive
Activity [32]: 33.3%
IC50 [1]: 45 µM
IC50 [33]: 58.5 µM
IC50 [34]: 21.8 µM
IC50 [35]: 85.1 µM
IC50 [2]: 123 µM
IC50 [36]: 10.8 µM

CC(C)(C)COC1OC(=O)C(Cl)=C1Nc1ccc(Br)cc1 (configuration not stated)
log(RatioIC50) [3]: 0.23
IC50 [1]: 30.9 µM
IC50 [2]: 28 µM

CC(C)OC1OC(=O)C(Cl)=C1N1CCCCC1 (configuration not stated)
IC50 [1]: > 400 µM
IC50 [2]: > 400 µM

CC(C)OC1OC(=O)C(Cl)=C1Nc1ccc(F)cc1 (configuration not stated)
IC50 [1]: > 400 µM
IC50 [2]: 186 µM

COC1OC(=O)C(Cl)=C1Cl (configuration not stated)
log(RatioIC50) [3]: 0.05
IC50 [1]: 4.6 µM
IC50 [2]: 5.1 µM

CCCCOC1OC(=O)C(Cl)=C1Cl (configuration not stated)
log(RatioIC50) [3]: 0
IC50 [1]: 22.3 µM
IC50 [2]: 22.5 µM

CCCCOC1OC(=O)C(Cl)=C1Nc1ccc(F)cc1 (configuration not stated)
log(RatioIC50) [3]: 0.19
IC50 [1]: 122 µM
IC50 [2]: 78.5 µM

CC(C)(C)COC1OC(=O)C(Cl)=C1Nc1ccc(F)cc1 (configuration not stated)
log(RatioIC50) [3]: 0.25
IC50 [1]: 47.6 µM
IC50 [2]: 26.7 µM

CC(C)(C)COC1OC(=O)C(Cl)=C1Nc1ccc(Cl)cc1 (configuration not stated)
log(RatioIC50) [3]: 0.36
IC50 [1]: 30.3 µM
IC50 [2]: 13.3 µM
